Measured values: ChEMBL document CHEMBL1148025, “7-Substituted-melatonin and 7-substituted-1-methylmelatonin analogues: effect of substituents on potency and binding affinity” (Bioorg Med Chem, 2007)
pEC50, pKi: −log10 of the molar value. The source made the active and inactive calls. The rule behind the calls is not given here.

Legend:
[1] = biological target: Melatonin receptor type 1A (Homo sapiens, UniProt P48039); assay: Displacement of 2[125I]iodomelatonin from human recombinant MT1 receptor expressed in NIH3T3 cells; type: cell-based
[2] = biological target: T1, Melatonin receptor type 1C (Xenopus laevis, UniProt P49219); assay: Effect on pigment aggregation in Xenopus laevis melanophores; type: functional
T1 sequence (P49219 whole entry): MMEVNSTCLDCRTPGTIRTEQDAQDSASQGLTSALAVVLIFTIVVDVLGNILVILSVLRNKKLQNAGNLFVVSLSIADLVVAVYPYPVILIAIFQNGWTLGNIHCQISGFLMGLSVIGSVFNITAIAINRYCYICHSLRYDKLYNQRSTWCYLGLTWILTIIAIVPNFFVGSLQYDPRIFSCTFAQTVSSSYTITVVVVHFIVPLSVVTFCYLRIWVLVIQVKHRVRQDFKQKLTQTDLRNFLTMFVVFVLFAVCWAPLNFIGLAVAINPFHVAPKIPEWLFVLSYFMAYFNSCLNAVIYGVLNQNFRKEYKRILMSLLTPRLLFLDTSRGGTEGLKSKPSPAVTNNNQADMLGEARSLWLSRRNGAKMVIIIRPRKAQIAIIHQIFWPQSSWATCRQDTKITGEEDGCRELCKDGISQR

[3] = biological target: T2, Melatonin receptor type 1B (Homo sapiens, UniProt P49286); assay: Displacement of 2[125I]iodomelatonin from human recombinant MT2 receptor expressed in NIH3T3 cells; type: cell-based
T2 sequence (P49286 whole entry): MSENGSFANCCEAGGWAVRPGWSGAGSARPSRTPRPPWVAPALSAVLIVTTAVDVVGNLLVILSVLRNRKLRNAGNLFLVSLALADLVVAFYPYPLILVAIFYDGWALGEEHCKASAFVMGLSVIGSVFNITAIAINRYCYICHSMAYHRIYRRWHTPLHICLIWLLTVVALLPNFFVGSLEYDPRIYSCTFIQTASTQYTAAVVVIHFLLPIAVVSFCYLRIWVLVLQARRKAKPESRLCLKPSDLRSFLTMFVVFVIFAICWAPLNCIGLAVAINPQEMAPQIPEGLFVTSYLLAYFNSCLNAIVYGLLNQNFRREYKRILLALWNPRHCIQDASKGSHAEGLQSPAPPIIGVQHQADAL

[4] = biological target: T3, Melatonin receptor type 1C (Xenopus laevis) (UniProt P49219); assay: Effect on pigment aggregation in Xenopus laevis melanophores at 10 uM; type: functional
T3 sequence (whole entry): T1 sequence (P49219 whole entry)

Melatonin receptor type 1A, sequence (P48039 whole entry): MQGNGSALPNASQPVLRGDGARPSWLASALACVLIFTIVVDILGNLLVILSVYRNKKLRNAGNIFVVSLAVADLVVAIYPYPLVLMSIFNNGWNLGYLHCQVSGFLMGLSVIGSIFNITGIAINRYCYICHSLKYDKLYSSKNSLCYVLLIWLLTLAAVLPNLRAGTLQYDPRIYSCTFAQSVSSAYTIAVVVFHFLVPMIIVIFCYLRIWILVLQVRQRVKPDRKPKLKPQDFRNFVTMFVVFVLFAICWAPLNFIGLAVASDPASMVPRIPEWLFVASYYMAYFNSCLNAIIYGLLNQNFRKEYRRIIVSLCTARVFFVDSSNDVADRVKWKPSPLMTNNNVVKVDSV

Row | Compound | pKi [1] | pEC50 [2] | pKi [3] | Activity [4]
1 | CCC(=O)NCCc1c[nH]c2c(C)cc(OC)cc12 | 8.75 | 7.50 | 8.96 | –
2 | CCC(=O)NCCc1cn(C)c2c(C)cc(OC)cc12 | 7.80 | 7.80 | 8.58 | –
3 | CCC(=O)NCCc1cn(C)c2c(Br)cc(OC)cc12 | 7.85 | 7.19 | 8.64 | –
4 | CCCC(=O)NCCc1c[nH]c2c(-c3ccccc3)cc(OC)cc12 | 6.02 | 7.34 | 6.06 | –
5 | COc1cc(C)c2[nH]cc(CCNC(C)=O)c2c1 | 8.57 | 7.34 | 8.76 | –
6 | CCCC(=O)NCCc1c[nH]c2c(C)cc(OC)cc12 | 8.54 | 7.90 | 9.17 | –
7 | CCCC(=O)NCCc1cn(C)c2c(-c3ccccc3)cc(OC)cc12 | 5.27 | – | 6.07 | inactive
8 | COc1cc(-c2ccccc2)c2c(c1)c(CCNC(C)=O)cn2C | 5.90 | 6.47 | 6.34 | –
9 | CCCC(=O)NCCc1c[nH]c2c(Br)cc(OC)cc12 | 8.29 | 8.46 | 9.45 | –
10 | COc1ccc2[nH]cc(CCNC(C)=O)c2c1 [MELATONIN] | – | 10.10 | – | –
11 | CCC(=O)NCCc1c[nH]c2c(Br)cc(OC)cc12 | 8.38 | 7.94 | 9.27 | –
12 | COc1cc(Br)c2[nH]cc(CCNC(C)=O)c2c1 | 8.45 | 8.48 | 9.17 | –
13 | COc1cc(C)c2c(c1)c(CCNC(C)=O)cn2C | 8.06 | 8.01 | 8.81 | –
14 | COc1cc(-c2ccccc2)c2[nH]cc(CCNC(C)=O)c2c1 | 4.89 | 6.92 | 5.52 | –
15 | COc1cc(Br)c2c(c1)c(CCNC(C)=O)cn2C | 7.98 | 7.61 | 8.88 | –
16 | CCC(=O)NCCc1c[nH]c2c(-c3ccccc3)cc(OC)cc12 | 6.21 | 6.81 | 6.21 | –
17 | CCCC(=O)NCCc1cn(C)c2c(Br)cc(OC)cc12 | 7.48 | 7.28 | 8.67 | –
18 | CCC(=O)NCCc1cn(C)c2c(-c3ccccc3)cc(OC)cc12 | 5.23 | – | 6.17 | inactive
19 | CCCC(=O)NCCc1cn(C)c2c(C)cc(OC)cc12 | 7.71 | 7.78 | 8.87 | –
